This note sets out measurements from PMC11310889, “Ribosomal translation of fluorinated non-canonical amino acids for de novo biologically active fluorinated macrocyclic peptides” (Chemical Science, 2024).

This test concerns E. coli W3110. The test is described as follows: Evaluation of R9-conjugated macrocyclic peptides against E. coli W3110 (survival, CFU). It counts as cell-based, Escherichia coli. Conditions: E. coli W3110 logarithmic-phase, 5 μM peptide, 15 min treatment (Fig. 4B). The procedure: the samples were centrifuged at 1000 rpm for 10 min，and take pictures of the pellet after centrifugation. Then, the supernatant from each sample was absorbed into the 96-well plate to ensure that there could be no air bubbles in each hole. The absorbance of the supernatant at the wavelength of 545 nm was measured by microplate reader, and the percentage of hemolysis of each […]
Percentage of hemolysis = 100%OD-OD×
Evaluation of R9-conjugated macrocyclic peptides against Gram-negative pathogens Remove the previously preserved E. coli W3110 cells from the -80 °C refrigerator, scrape a little, inoculate it into 1 mL LB liquid medium, and culture overnight in 37 °C shaker. The strain was inoculated into fresh LB liquid medium according to the inoculation ratio of 1:100 and incubated at 37 ℃ until the OD600 reached about 0.47~0.53. First, 100 μL E. coli W3110 cells was taken, then centrifuged for 2 minutes at 13000 rpm, then the supernatant was absorbed and discarded, and then the cells were resuspended with 100 μL PBS solution, followed by 13000 rpm centrifugation for two minutes. Various fluorinated macrocyclic peptides conjugated with R9 were dissolved in DMSO and then diluted to the required concentration. […] Finally, the plate was scanned and counted. […]

As to “Ac-(4-F-DPhe)IWHKSLT(4-F-DPhe)NYLHTCGS(Acp)RRRRRRRRR-NH2 (sidechain bridge or staple) [BAM-f2-R9, BAM-f2 conjugated with cell-penetrating peptide R9]”, the “eradication of E. coli bacteria” value is reported as “over 99.9%”.

Regarding “Ac-(4-F-DPhe)KHFIY(4-F-β-Phe)YRSPICGS(Acp)RRRRRRRRR-NH2 (sidechain bridge or staple) [BAM-β3-R9, BAM-β3 conjugated with cell-penetrating peptide R9]”, the “eradication of E. coli bacteria” value is on record as “over 99.9%”.
